Patent US12692262B2, “Substituted ureas as orexin receptor agonists” (Merck Sharp & Dohme LLC, priority 2020, dated 2026)

Target: T1, human OX2R (Homo sapiens, UniProt O43614)
T1 construct: expressed in transfected cells; host or cells: CHO (Chinese hamster ovary) cells grown under G418 selection
T1 sequence (O43614 1-444): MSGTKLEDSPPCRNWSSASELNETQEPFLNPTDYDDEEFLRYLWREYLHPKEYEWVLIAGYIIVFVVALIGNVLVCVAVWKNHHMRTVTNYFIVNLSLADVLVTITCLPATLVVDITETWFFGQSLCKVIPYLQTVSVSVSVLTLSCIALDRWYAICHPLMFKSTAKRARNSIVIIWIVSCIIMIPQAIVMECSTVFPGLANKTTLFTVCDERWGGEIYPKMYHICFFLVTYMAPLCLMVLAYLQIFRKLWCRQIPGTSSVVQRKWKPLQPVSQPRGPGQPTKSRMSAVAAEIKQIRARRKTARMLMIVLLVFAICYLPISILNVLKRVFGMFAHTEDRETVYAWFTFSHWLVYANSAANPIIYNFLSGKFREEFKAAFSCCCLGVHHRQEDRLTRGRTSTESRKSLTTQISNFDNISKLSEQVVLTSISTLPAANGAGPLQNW
Experiment: IPOne (IP-1 accumulation) assay in CHO cells expressing human OX2R
Type: cell-based
Conditions: for EC50: CHO cells expressing human OX2R, IP-One assay, 2 h incubation, four parameter logistic fit, read-out: OX2R Potency, EC50; for % of maximum agonist effect (relative to Orexin A): percent effect vs mean max effect of a reference compound at 1 uM (100% activity vs Orexin A), human OX2R
Summary of the method: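 CHO cells stably expressing human OX2R, grown in Iscove's modified DMEM with 10% FBS; agonist-driven IP-1 accumulation via the Gαq pathway measured by HTRF (D2/AB-cryptate detection after lysis). EC50 taken as the inflection point of a four-parameter logistic fit.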

EC50 | % of maximum agonist effect (relative to Orexin A) | Compound
0.6 nM | 99.8% | CCN(C(=O)NC(C)C1CCCC(F)(F)C1)[C@H](C)c1cccc(-c2cn3ccnc3c(OC)n2)c1 (stereo partly drawn) [Example 1-9, 3-(1-(3,3-difluorocyclohexyl)ethyl)-1-ethyl-1-((R)-1-(3-(8-methoxyimidazo[1,2-a]pyrazin-6-yl)phenyl)ethyl)urea]
50.9 nM | 96.3% | CCN(C(=O)NC(CO)C(F)(F)F)[C@H](C)c1cccc(-c2cn3ccnc3c(OC)n2)c1 (single isomer, unassigned) [Example 21]
2.5 nM | 101.6% | CCN(C(=O)N[C@@H](CCC(F)(F)F)C(F)(F)F)C(c1cnc(OC)c(-c2cn3ccnc3c(OC)n2)n1)C(F)(F)F (stereo partly drawn) [Example 10-5, 1-ethyl-3-((S)-1,1,1,5,5,5-hexafluoropentan-2-yl)-1-(2,2,2-trifluoro-1-(5-methoxy-6-(8-methoxyimidazo[1,2-a]pyrazin-6-yl)pyrazin-2-yl)ethyl)urea]
40.5 nM | 99.3% | CCN(C(=O)N[C@@H](CC1CC1)C(F)(F)F)[C@@H](c1cc(-c2cn3cc(C)nc3c(OC)n2)c(OC)cn1)C(F)(F)F [Example 3-5, 3-((S)-3-cyclopropyl-1,1,1-trifluoropropan-2-yl)-1-ethyl-1-((S)-2,2,2-trifluoro-1-(5-methoxy-4-(8-methoxy-2-methylimidazo[1,2-a]pyrazin-6-yl)pyridin-2-yl)ethyl)urea]
99.4 nM | 100.1% | CCN(C(=O)NC(CCC(F)(F)F)COC)[C@@H](c1cc(-c2cn3cc(C)nc3c(OC)n2)c(OC)cn1)C(F)(F)F (stereo partly drawn) [Example 2-49, 1-ethyl-1-((S)-2,2,2-trifluoro-1-(5-methoxy-4-(8-methoxy-2-methylimidazo[1,2-a]pyrazin-6-yl)pyridin-2-yl)ethyl)-3-(5,5,5-trifluoro-1-methoxypentan-2-yl)urea]
19.8 nM | 99.1% | CCN(C(=O)NC(C#N)c1cccc(C(F)(F)F)c1)[C@H](C)c1cccc(-c2cn3ccnc3c(OC)n2)c1 (stereo partly drawn) [Example 1-12, 3-(cyano(3-(trifluoromethyl)phenyl)methyl)-1-ethyl-1-((R)-1-(3-(8-methoxyimidazo[1,2-a]pyrazin-6-yl)phenyl)ethyl)urea]
360 nM | 98.0% | CCN(C(=O)NC(C)(C)C#N)[C@H](C)c1cccc(-c2cn3ccnc3c(OC)n2)c1 [Example 2-25, (R)-3-(2-cyanopropan-2-yl)-1-ethyl-1-(1-(3-(8-methoxyimidazo[1,2-a]pyrazin-6-yl)phenyl)ethyl)urea]
6.5 nM | 97.7% | CCOc1cc(-c2cccc([C@@H](C)N(CC)C(=O)N[C@H](CC)CCC(F)(F)F)c2)cn2ccnc12 [Example 8-2, 1-((R)-1-(3-(8-ethoxyimidazo[1,2-a]pyridin-6-yl)phenyl)ethyl)-1-ethyl-3-((R)-6,6,6-trifluorohexan-3-yl)urea]
73.4 nM | 94.9% | CCN(C(=O)NCC(F)(F)F)[C@H](C)c1cccc(-c2cn3ccnc3c(OC)n2)c1 [Example 1-5, (R)-1-ethyl-1-(1-(3-(8-methoxyimidazo[1,2-a]pyrazin-6-yl)phenyl)ethyl)-3-(2,2,2-trifluoroethyl)urea]
4.4 nM | 100.5% | C#CCCCC(NC(=O)N(CC)[C@H](C)c1cccc(-c2cn3ccnc3c(OC)n2)c1)C(F)(F)F (stereo partly drawn) [Example 3-7, 1-ethyl-1-((R)-1-(3-(8-methoxyimidazo[1,2-a]pyrazin-6-yl)phenyl)ethyl)-3-(1,1,1-trifluorohept-6-yn-2-yl)urea]
2 nM | 95.4% | CCN(C(=O)N[C@@H](CCC(F)(F)F)C(F)(F)F)[C@H](C)c1cccc(-c2cc(OC)c3ncnn3c2)c1 [Example 8-11, 1-ethyl-3-((S)-1,1,1,5,5,5-hexafluoropentan-2-yl)-1-((R)-1-(3-(8-methoxy-[1,2,4]triazolo[1,5-a]pyridin-6-yl)phenyl)ethyl)urea]
17.5 nM | 97.3% | CCN(C(=O)NCC(N(C)C)C(F)(F)F)[C@H](C)c1cccc(-c2cc(OC)c3nccn3c2)c1 (stereo partly drawn) [Example 1-7, 3-(2-(dimethylamino)-3,3,3-trifluoropropyl)-1-ethyl-1-((R)-1-(3-(8-methoxyimidazo[1,2-a]pyridin-6-yl)phenyl)ethyl)urea]
0.7 nM | 101.0% | CCN(C(=O)N[C@@H](CCC(F)(F)F)C(F)(F)F)C(c1ccc(OC)c(-c2cn3ccnc3c(OC)n2)n1)C(F)(F)F (stereo partly drawn) [Example 10-20, 1-ethyl-3-((S)-1,1,1,5,5,5-hexafluoropentan-2-yl)-1-(2,2,2-trifluoro-1-(5-methoxy-6-(8-methoxyimidazo[1,2-a]pyrazin-6-yl)pyridin-2-yl)ethyl)urea]
1.1 nM | 100.4% | CCN(C(=O)N[C@@H](CCC(F)(F)F)C(F)(F)F)[C@@H](c1cc(-c2cn3ccnc3c(OC)n2)c(OC)cn1)C(F)(F)F [Example 10-1, 1-ethyl-3-((S)-1,1,1,5,5,5-hexafluoropentan-2-yl)-1-((S)-2,2,2-trifluoro-1-(5-methoxy-4-(8-methoxyimidazo[1,2-a]pyrazin-6-yl)pyridin-2-yl)ethyl)urea]
211 nM | 96.1% | CC[C@H](CCC(F)(F)F)NC(=O)N(CC)[C@H](C)c1cccc(-c2cn3ccnc3c(SC)n2)c1 [Example 8-1, 1-ethyl-1-((R)-1-(3-(8-(methylthio)imidazo[1,2-a]pyrazin-6-yl)phenyl)ethyl)-3-((R)-6,6,6-trifluorohexan-3-yl)urea]
0.7 nM | 101.8% | CCN(C(=O)NC(CNS(=O)(=O)N(C)C)C(F)(F)F)[C@H](C)c1cccc(-c2cn3ccnc3c(OC)n2)c1 (stereo partly drawn) [Example 17, N-{3-[(dimethylsulfamoyl)amino]-1,1,1-trifluoropropan-2-yl}-N-ethyl-N-{(1R)-1-[3-(8-methoxyimidazo[1,2-a]pyrazin-6-yl)phenyl]ethyl}urea]
16.3 nM | 99.6% | CCc1cc(-c2cc([C@@H](C)N(CC)C(=O)N[C@@H](CCC(F)(F)F)C(F)(F)F)ncc2OC)cc2ccnn12 [Example 9-5, 1-ethyl-1-((R)-1-(4-(7-ethylpyrazolo[1,5-a]pyridin-5-yl)-5-methoxypyridin-2-yl)ethyl)-3-((S)-1,1,1,5,5,5-hexafluoropentan-2-yl)urea]
1.2 nM | 100.6% | CCN(C(=O)N[C@@H](CCC(F)(F)F)C1CC1)[C@H](C)c1cnc(OC)c(-c2cn3ccnc3c(OC)n2)c1 [Example 12-2, 3-((S)-1-cyclopropyl-4,4,4-trifluorobutyl)-1-ethyl-1-((R)-1-(6-methoxy-5-(8-methoxyimidazo[1,2-a]pyrazin-6-yl)pyridin-3-yl)ethyl)urea]
0.9 nM | 99.7% | CCN(C(=O)N[C@@H](CCC(F)(F)F)C(F)(F)F)[C@@H](c1cc(-c2cc(OC)c3nccn3c2)c(OC)cn1)C(F)(F)F [Example 9-1, 1-ethyl-3-((S)-1,1,1,5,5,5-hexafluoropentan-2-yl)-1-((S)-2,2,2-trifluoro-1-(5-methoxy-4-(8-methoxyimidazo[1,2-a]pyridin-6-yl)pyridin-2-yl)ethyl)urea]
9.4 nM | 101.1% | CCN(C(=O)N[C@@H]1C[C@@]1(C)C(F)(F)F)[C@@H](c1cc(-c2cn3ccnc3c(OC)n2)c(OC)cn1)C(F)(F)F [Example 2-27, 1-ethyl-3-((1R,2R)-2-methyl-2-(trifluoromethyl)-cyclopropyl)-1-((S)-2,2,2-trifluoro-1-(5-methoxy-4-(8-methoxyimidazo[1,2-a]pyrazin-6-yl)pyridin-2-yl)ethyl)urea]
193 nM | 99.0% | CCN(C(=O)NC[C@H]1COCC(=O)N1)[C@H](C)c1cccc(-c2cn3ccnc3c(OC)n2)c1 [Example 1-6, 1-ethyl-1-((R)-1-(3-(8-methoxyimidazo[1,2-a]pyrazin-6-yl)phenyl)ethyl)-3-(((S)-5-oxomorpholin-3-yl)methyl)urea]

Compound | EC50 | % of maximum agonist effect (relative to Orexin A)
CCN(C(=O)N[C@@H](CCC(F)(F)F)C(F)(F)F)[C@@H](c1cc(-c2cc3scnc3c(OC)n2)c(OC)cn1)C(F)(F)F [Example 10-8, 1-ethyl-3-((S)-1,1,1,5,5,5-hexafluoropentan-2-yl)-1-((S)-2,2,2-trifluoro-1-(5-methoxy-4-(4-methoxythiazolo[4,5-c]pyridin-6-yl)pyridin-2-yl)ethyl)urea] | 2.3 nM | 100.7%
CCN(C(=O)N[C@@H](CCC(F)(F)F)C(F)(F)F)C(c1cc(-c2cc(OC)c3nc(C#N)cn3c2)c(OC)cn1)C(F)(F)F (stereo partly drawn) [Example 10-7, 1-(1-(4-(2-cyano-8-methoxyimidazo[1,2-a]pyridin-6-yl)-5-methoxypyridin-2-yl)-2,2,2-trifluoroethyl)-1-ethyl-3-((S)-1,1,1,5,5,5-hexafluoropentan-2-yl)urea] | 1.5 nM | 102.7%
